Tests used:
[1] = molecular target: T1, cloned human 5-HT1A receptors (Homo sapiens, UniProt P08908); test: 35S-GTPγS binding assay, antagonist activity versus 8-OH-DPAT; type: biochemical; settings: reversal of 8-OH-DPAT effect on 35S-GTPγS binding; for IC50: read-out: 5-HT1A Function IC50
T1 construct: expressed in transfected cells
T1 sequence (P08908 1-422): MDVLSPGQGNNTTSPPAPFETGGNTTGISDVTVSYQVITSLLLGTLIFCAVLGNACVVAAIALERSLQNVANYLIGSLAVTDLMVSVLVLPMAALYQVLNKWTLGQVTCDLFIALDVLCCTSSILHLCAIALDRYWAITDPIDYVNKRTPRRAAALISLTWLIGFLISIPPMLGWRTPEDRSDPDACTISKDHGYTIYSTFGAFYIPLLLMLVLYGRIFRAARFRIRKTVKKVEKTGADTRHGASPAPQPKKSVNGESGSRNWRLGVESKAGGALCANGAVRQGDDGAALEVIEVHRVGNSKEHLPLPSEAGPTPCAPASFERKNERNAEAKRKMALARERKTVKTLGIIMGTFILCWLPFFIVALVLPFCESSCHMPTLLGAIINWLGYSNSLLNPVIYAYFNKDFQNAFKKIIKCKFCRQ
Experimental: Antagonist activity at 5-HT1A receptors was established by using a ^35S-GTPγS binding assay similar to that used by Lazareno and Birdsall (Br. J. Pharmacol. 109: 1120, 1993), in which the test compound's ability to affect the binding of ^35S-GTPγS to membranes containing cloned human 5-HT1A receptors was determined. Agonists produce an increase in binding whereas antagonists produce no increase but rather reverse the effects of the standard agonist 8-OH-DPAT. The test compound's maximum inhibitory effect is represented as the Imax, while its potency is defined by the IC50.

[2] = molecular target: T2, human 5-HT1A receptors (Homo sapiens, UniProt P08908); test: [3H] 8-OH-DPAT displacement from 5-HT1A receptor (CHO cells); type: binding; settings: displacement of [3H] 8-OH-DPAT, CHO cells stably transfected with human 5-HT1A; read-out: 5-HT1A Receptor Affinity KI
T2 construct: expressed in transfected cells; host or cells: CHO cells
T2 sequence (P08908 1-422): T1 sequence (P08908 1-422)
Text: High affinity for the serotonin 5-HT1A receptor was established by testing the claimed compound's ability to displace [^3H] 8-OH-DPAT (dipropylaminotetralin) from the 5-HT1A serotonin receptor following a modification of the procedure of Hall et al., J. Neurochem. 44, 1685 (1985) which utilizes CHO cells stably transfected with human 5-HT1A receptors.

Structure (SMILES) | 5-HT1A Function Imax (maximum inhibitory effect) [1] [%] | IC50 [1] [nM] | melting point [°C] | Ki [2] [nM]
Cc1nc2ccc3c(c2o1)OC(CN1C2CCC1CC(O)(c1ccccc1)C2)CO3 (stereo not drawn) [Example 1, 8-{[2-Methyl-7,8-dihydro[1,4]dioxino[2,3-g][1,3]benzoxazol-8-yl]methyl}-3-phenyl-8-azabicyclo[3.2.1]octan-3-ol] | 76 | 53 | 203 to 205 | 0.54
Cc1nc2ccc3c(c2o1)OC(CN1C2CCC1CC(O)(c1cccc(C(F)(F)F)c1)C2)CO3 (stereo not drawn) [Example 2, 8-{[2-Methyl-7,8-dihydro[1,4]dioxino[2,3-g][1,3]benzoxazol-8-yl]methyl}-3-[3-(trifluoromethyl)phenyl]-8-azabicyclo[3.2.1]octan-3-ol] | – | – | 148 to 150 | 0.77
Cc1nc2ccc3c(c2o1)OC(CN1C2CCC1CC(O)(c1ccc4ccccc4c1)C2)CO3 (stereo not drawn) [Example 3, 8-{[2-Methyl-7,8-dihydro[1,4]dioxino[2,3-g][1,3]benzoxazol-8-yl]methyl}-3-(2-naphthyl)-8-azabicyclo[3.2.1]octan-3-ol] | 95 | 27 | – | 3.71

From patent US7381723B2, “Azabicyclylmethyl derivatives of 7,8-dihydro-1,6,9,-trioxa-3-aza-cyclopenta[a]naphthalene as 5-HT1A antagonists” (Wyeth, priority 2001, dated 2008)
